Read-outs that look alike come from different tables or passages of the source. Marks after values point to notes of the source that are not given here.
Columns and labels:
[1] = system: Lewis lung cancer lung metastasis; assay type: in vivo, mouse; conditions: 15 mg/kg; for Number of pulmonary nodules: after 21 days of administration
Experimental: (§1) a first batch of experiments: C57BL/6 mice were randomly divided into 6 groups according to body weight. • Saline control group administered with physiological saline 20 ml/kg • Solvent control group administered with 35-degree white wine 20 ml/kg • Cyclophosphamide administered with 0.075% 15 mg/20 group cyclophosphamide ml/kg • Low dose group of anti-administered with 20% anti-lung cancer 4 ml/20 lung cancer vinum ml/kg • Mid dose group of anti-administered with 40% anti-lung cancer 8 ml/20 lung cancer vinum ml/kg • High dose group of anti-Administered with 80% anti-lung 16 ml/20 m lung cancer vinum cancer vinum l/kg • a second batch of experiments: randomly divided into 6 groups based on body weight: • Saline control group administered with physiological saline 20 ml/kg • Solvent control group administered with 35-degree white wine 20 ml/kg • Cyclophosphamide administered with 0.075% 15 mg/20 group cyclophosphamide ml/kg • Low dose group of anti-administered with 10% anti-lung cancer 2 ml/20 lung cancer vinum ml/kg • Mid dose group of anti-administered with 20% anti-lung cancer 4 ml/20 lung cancer vinum ml/kg • High dose group of anti-administered with 40% anti-lung cancer 8 ml/20 lung cancer vinum ml/kg
C57BL/6 mice were adaptively fed for 3-5 days, and an in vivo transplant tumor model was prepared using anti-tumor drug experimental methods. Each mouse was subcutaneously injected with 0.2 ml of cell suspension with a concentration of 2×10^7 cells/mL. […]
The first batch of experiments: measure a tumor volume and plot a tumor growth curve once on the 8th, 10th, 12th, and 14th day of administration; after 14 days of administration, 10 mice in each group were weighed and euthanized. Tumors, spleens, lungs, and thymus were removed, weighed, tumor inhibition rate and organ coefficient were calculated; after 21 days of administration, 6 mice in each group were perfused with physiological saline and their lungs were removed, fixed with Bouin solution and the number of metastatic lung nodules was examined under a microscope. […]

[2] = 15 mg/kg
Experimental: as §1
(§2) C57BL/6 mice were adaptively fed for 3-5 days, and an in vivo transplant tumor model was prepared using anti-tumor drug experimental methods. Each mouse was subcutaneously injected with 0.2 ml of cell suspension with a concentration of 2×10^7 cells/mL. On the second day, they were randomly divided into 6 groups based on body weight, with 20 mice in each group. Each group started administration the next day after tumor inoculation, and the drugs in each group were freshly prepared and administered at a dose of […], twice a day for 14, 16, or 21 consecutive days.
(§3) The first batch of experiments: measure a tumor volume and plot a tumor growth curve once on the 8th, 10th, 12th, and 14th day of administration; after 14 days of administration, 10 mice in each group were weighed and euthanized. Tumors, spleens, lungs, and thymus were removed, weighed, tumor inhibition rate and organ coefficient were calculated; after 21 days of administration, 6 mice in each group were perfused with physiological saline and their lungs were removed, fixed with Bouin solution and the number of metastatic lung nodules was examined under a microscope.
(§4) The second batch of experiments: measure the tumor volume and plot the tumor growth curve once on the 8th, 10th, 12th, 14th, and 16th day of administration; after 16 days of administration, 12 mice in each group were weighed and euthanized. Tumors, spleens, lungs, and thymus were removed, weighed, and the tumor inhibition rate and organ coefficient were calculated; after 21 days of administration, 6 mice in each group were perfused with physiological saline and their lungs were removed, fixed with Bouis solution and the number of metastatic lung nodules was examined under the microscope.

Lewis lung cancer = assay type: in vivo, mouse; conditions: 15 mg/kg
Text: C57BL/6 mice, 6-8 weeks old, weighing 19-21 g, male, provided by Liaoning Changsheng Biotechnology Co., Ltd., certificate number: SYSK (Ji) 2018-0001. Two batches of experiments all used male C57BL/6 mice, which were adaptively raised in a laboratory for 3-5 days before the experiment.
Mouse Lewis lung cancer cells were provided by Jilin Cancer Research Institute and passaged and preserved in the laboratory. Lewis lung cancer cells were resuscitated, cells were expanded to 2-3×10^8 cells/mL, cells were collected, and cell density was adjusted to 2×10^7 cells/mL.
as §1, §2, §3, §4

[3] = first batch, after 14 days of administration
[4] = second batch, after 16 days of administration

O=P1(N(CCCl)CCCl)NCCCO1 (centres unmarked) [Cyclophosphamide]
Effect on lung metastasis in Lewis lung cancer mice ([1]; continuous administration for 21 days): can inhibit lung metastasis | Number of pulmonary nodules ([1]; first batch): 6.17 ± 1.94 | Number of pulmonary nodules ([1]; second batch): 6.67 ± 1.21 | Toxicity (body weight, thymic coefficient, spleen coefficient of mice) [2]: significant toxic effects | Weight before administration ([2]; first batch, Table 3): 20.30 ± 1.33 g | Lung coefficient [2, 3]: 7.26 ± 0.85 | Spleen coefficient [2, 3]: 3.40 ± 1.02 | Thymic coefficient [2, 3]: 1.11 ± 0.35 | Weight after administration [2, 3]: 20.30 ± 1.33 g | Weight after administration ([2]; first batch, after 21 days of administration): 21.81 ± 1.37 g | Weight after administration [2, 4]: 21.58 ± 0.79 g | Lung coefficient [2, 4]: 6.66 ± 0.72 | Spleen coefficient [2, 4]: 3.62 ± 0.86 | Thymic coefficient [2, 4]: 0.47 ± 0.16 | Weight after administration ([2]; second batch, after 21 days of administration): 22.02 ± 1.71 g | Volume of tumor (Lewis lung cancer; first batch, 8 days): 61.08##** mm^3 | Volume of tumor (Lewis lung cancer; first batch, 10 days): 244.09##** mm^3 | Volume of tumor (Lewis lung cancer; first batch, 12 days): 817.83##** mm^3 | Volume of tumor (Lewis lung cancer; first batch, 14 days): 953.67##** mm^3 | Tumor inhibition rate (Lewis lung cancer; [3]): 63.52% | Weight of tumor (Lewis lung cancer; [3]): 0.59 ± 0.26 g | Volume of tumor (Lewis lung cancer; second batch, 8 days): 111.30##** mm^3 | Volume of tumor (Lewis lung cancer; second batch, 10 days): 165.52##** mm^3 | Volume of tumor (Lewis lung cancer; second batch, 12 days): 278.25##** mm^3 | Volume of tumor (Lewis lung cancer; second batch, 14 days): 371.57##** mm^3 | Volume of tumor (Lewis lung cancer; second batch, 16 days): 461.54##** mm^3 | Tumor inhibition rate (Lewis lung cancer; [4]): 67.43% | Weight of tumor (Lewis lung cancer; [4]): 0.56 ± 0.22 g | Tumor inhibition rate (Lewis lung cancer; summary of both batches, by gavage): 65.48%
